This note sets out measurements from patent US9012439B2, “Use of electrophilic compounds for inducing platelet production or maintaining platelet function” (University of Rochester, priority 2007, dated 2015).

The subject of assay [1] is M07e cells. The assay can be described thus: Platelet production from M07e cells (flow cytometry). It counts as cell-based. The note with it: 10 μM, 24 h. The protocol:
(§1) Meg-01 and M07e cells were purchased from the American Type Culture Collection (Rockville, Md.) and Dami cells were a generous gift from Dr. Patricia J. Simpson-Haidaris (University of Rochester). All cells were cultured in RPMI-1640 tissue culture medium (Invitrogen) supplemented with 5% fetal bovine serum (FBS; Invitrogen), 10 mM HEPES (N-2-hydroxyethylpiperazine-N′-2-ethanesulfonic acid; Sigma), 2 mM L-glutamine (Invitrogen), 4.5 g/L glucose (Invitrogen), and 50 μg/mL gentamicin (Invitrogen). M07e cells were also supplemented with 100 ng/mL of granulocyte monocyte-colony stimulating factor (GM-CSF, R&D Systems). All treatments were performed in normal growth media. Dimethyl sulfoxide (DMSO) was used as a vehicle (control) in the experiments described below.
(§2) Platelets were isolated from megakaryocytes by centrifugation at 150 xg for 10 min. Supernatants underwent sequential centrifugation (500 xg for 10 min and 1000×g for 10 min). The remaining platelet pellet was fixed then permeabilized with a CD61 or CD41 antibody. 7-AAD (BD Pharmingen) was added for 10 min before analyzing the cells by flow cytometry. […]

Assay [2] deals with Dami cells. The assay can be described thus: Platelet production from Dami cells (flow cytometry). Type of assay: cell-based. The conditions noted are these: 10 μM, 24 h. The method, then:
as §1, §2
On the technique in general: A flow cytometer gives signals particle by particle.

The subject of assay [3] is human culture-derived platelets. Nature of the assay: Function of human culture-derived platelets (collagen response, spreading on fibrinogen). It counts as cell-based. The protocol:
Platelets were isolated from the Meg-01 cells and human blood as described above. Both normal human platelets and Meg-01-derived platelets were stained with annexin V-FITC then treated with 10 μg/ml of collagen for 15 min. Cells were analyzed for collagen-induced annexin V binding and change in size and shape by flow cytometry. Platelets were isolated from primary human megakaryocytes and primary mouse megakaryocytes as described above. Primary human platelets were stained with CD41-FITC and primary mouse platelets were stained with CD61-PE then treated with 10 μg/mL of collagen. Cells were analyzed for collagen-induced CD61/CD41 upregulation and change in size and shape using flow cytometry.
Coverslips were coated with 100 μg/mL of fibrinogen for 1 h and blocked with 0.5 mg/mL BSA for 1 h. Platelets were added to the fibrinogen-coated coverslips in Tyrode's buffer and fixed with glutaraldehyde, post-fixed with 1% osmium tetroxide, and dehydrated. Platelets were then coated with a gold/palladium film. Images were acquired using the Zeiss-Leo 982 FE-SEM (scanning electron microscope).

The target of assay [4] is T1, PPARγ (Homo sapiens, UniProt P37231).
T1 construct: Meg-01 cells were plated at a density of […] cells per well in a E-well plate and transfected; endogenous in cells; host or cells: Meg-01 cells
T1 sequence (P37231 1-505): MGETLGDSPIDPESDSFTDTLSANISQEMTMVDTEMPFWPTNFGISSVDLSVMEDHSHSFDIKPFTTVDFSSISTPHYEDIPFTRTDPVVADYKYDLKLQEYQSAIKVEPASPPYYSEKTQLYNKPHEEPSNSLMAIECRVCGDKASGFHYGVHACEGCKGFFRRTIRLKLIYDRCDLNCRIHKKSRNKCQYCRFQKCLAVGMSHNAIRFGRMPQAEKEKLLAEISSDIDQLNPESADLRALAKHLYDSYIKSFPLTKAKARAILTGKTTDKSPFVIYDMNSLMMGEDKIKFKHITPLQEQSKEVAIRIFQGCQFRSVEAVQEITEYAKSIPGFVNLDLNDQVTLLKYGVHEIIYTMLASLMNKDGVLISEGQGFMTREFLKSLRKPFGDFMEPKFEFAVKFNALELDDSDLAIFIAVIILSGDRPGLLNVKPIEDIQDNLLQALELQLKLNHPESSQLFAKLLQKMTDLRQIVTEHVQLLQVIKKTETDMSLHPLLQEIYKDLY
The assay can be described thus: PPARγ gene reporter analysis (PPRE-luciferase) in Meg-01 cells. Type of assay: cell-based. The note with it: 10 μM, 24 h after ligand treatment. The method, then: Meg-01 cells were plated at a density of […] cells per well in a […] and transfected, using lipofectamine LTX (Invitrogen), with a PPRE (Peroxisome Proliferator Response Element)-luciferase reporter plasmid containing three copies of the ACO-PPRE (a gift from Dr. B. Seed, Massachusetts General Hospital, Boston, Mass.). […] Transfection efficiency was determined by transfecting the cells with green fluorescent protein (GFP) plasmid and determining the percentage of cells that were GFP+ by flow cytometry. […] Luciferase activity was assessed 24 h after ligand treatment using the Promega Luciferase Assay System, and relative light units (RLU) were determined using a Lumicount Microplate Luminometer (Packard Instrument Co., Meriden, Conn.).

In assay [5] the test system is Meg-01 cells. The assay can be described thus: DNA content analysis of Meg-01 cells. Type of assay: cell-based, human. The conditions noted are these: 10 μM. The method, then:
Cells were fixed in 95% ethanol, treated with RNAse (Sigma) followed by 20 μg/mL propidium iodide (Sigma) to stain DNA, and analyzed by flow cytometry.

The subject of assay [6] is Meg-01 cells. Nature of the assay: Active-caspase protein in Meg-01 cells. It counts as cell-based, human. The note with it: Meg-01 cells in the presence of 15d-PGJ2.

In the case of `CCCCCC=CC=C1C(=O)C=C[C@@H]1CC=CCCCC(=O)O` [15d-PGJ2, 15-deoxy-Δ^12,14 prostaglandin J2], the platelet production entry in assay [1] and in assay [2] was “increased platelet production” throughout. Besides, the “platelet spreading on fibrinogen” value in assay [3] (human culture-derived platelets, fibrinogen coated slide) is given as “spread in response to fibrinogen”. Moreover, the “geometric mean fluorescence intensity of surface CD61, after collagen treatment” value in assay [3] (platelets from CD61+ cell cultures treated with 15d-PGJ2, collagen 10 μg/mL, 15 min) stood at 20. The “geometric mean fluorescence intensity of surface CD61, before collagen” value in assay [3] (platelets from CD61+ cell cultures treated with 15d-PGJ2, no collagen) is on record as 5. In assay [4], the “PPARγ activation (PPRE-luciferase activity)” value is given as “activated PPARγ”. The DNA content entry is listed as “unchanged” in assay [5] (24 h and 48 h); “increased DNA content” in assay [5] (72 h). In addition, the active-caspase protein entry in assay [6] is “upregulated active-caspase protein”.
